≈ marks a conversion by molar mass, not a printed value.
Assays:
[1] = tested on: A. baumannii; test: MIC determination by microbroth dilution; format: cell-based; details: Acinetobacter baumannii, ATCC19606; ATCC 19606
Description: (§1) Minimal inhibitory concentration (MIC) determination. The detection of MIC was performed by the microbroth dilution method with reference to the previously report by Wang et al^2. Briefly, the fresh bacterial suspension was adjusted to a McF standard equivalent of 0.5 (~1.5 × 10^8 CFU/mL) and then 100-fold diluted with MH broth. Fifty microliters of bacterial suspension with equal volume of serially diluted compounds (1-128 µg/mL) were added into a 96-well cell plate (Corning Costar, the United States) and incubated at 37°C for 16-18 h. The bacterial suspension without compounds was used as a negative control. The lowest concentration that inhibited visible bacterial growth was considered as the value of MIC.

[2] = tested on: E. coli; test: MIC determination by microbroth dilution; format: cell-based; details: Escherichia coli, ATCC25922; ATCC 25922
Description: as §1

[3] = tested on: E. faecalis; test: MIC determination by microbroth dilution; format: cell-based; details: Enterococcus faecalis
Description: as §1

[4] = tested on: E. faecium; test: MIC determination by microbroth dilution; format: cell-based; details: Enterococcus faecium
Description: as §1

[5] = tested on: K. pneumoniae; test: MIC determination by microbroth dilution; format: cell-based; details: Klebsiella pneumoniae, ATCC700603; ATCC 700603
Description: as §1

[6] = tested on: P. aeruginosa; test: MIC determination by microbroth dilution; format: cell-based; details: Pseudomonas aeruginosa, PAO1
Description: as §1

[7] = tested on: S. epidermidis; test: MIC determination by microbroth dilution; format: cell-based; details: Staphylococcus epidermidis
Description: as §1

[8] = tested on: Salmonella typhimurium (TA97a, TA98, TA100, and TA1535) and E. coli WP2 uvrA (pKM101); test: Ames test (overall); format: cell-based
Description: Ames test. Genotoxicity of the compounds was determined by Ames Kit (IPHASE, Beijing, China) containing Salmonella typhimurium (TA97a, TA98, TA100, and TA1535) and E. coli WP2 uvrA (pKM101). Diclofenac and 2-aminofluorene were used as positive controls for TA97a and TA98. Methyl methanesulfonate and 2-aminofluorene were used as positive controls for TA100. Methyl methanesulfonate and 2-aminoanthracene were used as positive controls for WP2 uvrA (pKM101). NaN3 and 2-aminoanthracene were used as positive controls for TA1535. The bottom and top layer culture medium, and S9 mixed solution were prepared according to the manufacturer’s instructions. After incubation at 37℃ for 48h, the colonies were counted.

[9] = biological target: FtsH (Staphylococcus aureus, UniProt Q2G0R0); test: Surface plasmon resonance (SPR); format: binding, S. aureus ATCC 43300; details: 25 °C
Description: Surface plasmon resonance (SPR). To detect the affinity between the small molecular compounds and FtsH, SPR analyses were performed on a multiple flow cell Biacore T200 instrument (Cytiva, the United States). Briefly, FtsH (35.5 µg/mL in 10 mM sodium acetate buffer, pH= 4.0) was covalently immobilized on a dextran matrix CM5 sensor chip surface in three different flow cells. The excessive active groups on the dextran matrix were blocked using 1 M ethanolamine at the velocity of 10 μL/min for 15 min. The uncoated reference flow cell on the fourth flow cell was prepared on the dextran matrix treated as described above but without any ligand. 1×PBS (pH 7.4) containing 2 mM KH2PO4, 137 mM NaCl, 10 mM Na2HPO4, 2.7 mM KCl and 5%DMSO was used as the running buffer. In the running buffer, a 2-fold serially diluted of compounds was passed over the ligand at a flow rate of 30 µL/min. The sensorgrams were recorded at 25 °C. The response units at the steady state were fitted to the Langmuir equation to yield the Kd values^35.
Protein synthesis and purification. The primers in this study were designed according to the sequence of S. aureus ATCC 43300 genome published on NCBI. […] Finally, the target protein was detected by SDS-PAGE. […]

[10] = tested on: RAW264.7; test: Inflammatory factors inhibition; format: cell-based; details: LPS-treated RAW264.7, 16 μg/mL, 12 h
Description: Inflammatory factors inhibition by compounds. Cell line of RAW264.7 was cultured in DMEM medium with 10% FBS. After incubation at 37 ℃ 5% CO2 to log phase, the attached cells were washed with 1× PBS and added with 1 μg/mL of LPS. After incubation at 37 ℃ 5% CO2 for 30 min, 16 μg/mL of C218-0546 or STK848198 was added to each well. The cells were further cultured for 12h, and the cell precipitate was collected for qRT-PCR while the supernatant was collected for ELISA.
For gene expression determination. One milliliter of Trizol was added to lysis the cells. Then, the suspension was incubated with 200 μL chloroform for 3 min. After centrifugation at 12000 rpm 4℃ for 15 min, the aqueous phase was removed to RNase-free tubes, and added with equal volume of isopropanol. After centrifugation at 12000 rpm 4℃, the RNA precipitation was collected and wash with 75% ethanol. […] Absorbance at 260nm and 280 nm was detected to determine the RNA concentration and purity. cDNA was synthesized with HiFiScript cDNA Synthesis Kit (CoWin Biosciences, Beijing, China) according to the manufacture’s specification, and UltraSYBR Mixture (2×, CoWin Biosciences, Beijing, China) was used for qPCR determination.
ELISA kit (Proteintech, Wuhan, China) was used for cytokines production quantification. […] Then, 100 μL substrate was added to each well and the absorbance at 450 nm was determined.

FtsH, sequence (Q2G0R0 entry or part of it): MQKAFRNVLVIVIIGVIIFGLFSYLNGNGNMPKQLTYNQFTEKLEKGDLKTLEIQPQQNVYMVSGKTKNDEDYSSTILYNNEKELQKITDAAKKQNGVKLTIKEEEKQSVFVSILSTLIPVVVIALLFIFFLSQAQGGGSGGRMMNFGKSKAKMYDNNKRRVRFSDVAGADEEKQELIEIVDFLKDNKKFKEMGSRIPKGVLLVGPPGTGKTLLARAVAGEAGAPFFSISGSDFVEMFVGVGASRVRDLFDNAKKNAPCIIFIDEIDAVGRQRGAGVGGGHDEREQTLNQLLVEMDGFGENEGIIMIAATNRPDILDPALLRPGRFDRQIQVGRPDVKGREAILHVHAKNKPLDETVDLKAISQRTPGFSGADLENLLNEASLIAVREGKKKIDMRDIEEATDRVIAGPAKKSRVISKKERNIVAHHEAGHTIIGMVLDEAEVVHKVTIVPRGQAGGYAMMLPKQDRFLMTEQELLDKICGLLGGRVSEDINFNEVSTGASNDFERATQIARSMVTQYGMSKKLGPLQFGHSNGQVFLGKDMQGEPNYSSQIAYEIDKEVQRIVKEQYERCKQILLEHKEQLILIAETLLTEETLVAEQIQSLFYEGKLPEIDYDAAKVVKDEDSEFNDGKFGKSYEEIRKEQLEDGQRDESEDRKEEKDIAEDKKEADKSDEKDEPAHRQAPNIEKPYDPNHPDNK

Cc1nc2c(-c3ccc(Cl)cc3)cnn2c(O)c1Cc1ccccc1 [STK848198]
MIC [1]: > 32 µg/mL
MIC [2]: > 32 µg/mL
MIC ([3]; ATCC29212, ATCC 29212): 4 µg/mL (≈ 11.4 µM)
MIC ([3]; ATCC51299, ATCC 51299, vancomycin resistant strain): 4 µg/mL (≈ 11.4 µM)
MIC ([4]; ATCC19434, ATCC 19434): 8 µg/mL (≈ 22.9 µM)
MIC ([4]; U101, vancomycin resistant strain): 4 µg/mL (≈ 11.4 µM)
MIC [5]: > 32 µg/mL
MIC [6]: > 32 µg/mL
MIC ([7]; ATCC12228, ATCC 12228): 1 µg/mL (≈ 2.86 µM)
MIC ([7]; RP62A): 1 µg/mL (≈ 2.86 µM)
genotoxicity [8]: no genotoxicity
Kd [9]: 31 µM
inflammatory cytokines production (IL-1β, IL-6, TNFα decreased, IL-10 enhanced) [10]: inhibit inflammatory progress
